From PubChem BioAssay AID328 (DTP/NCI, 2004) come the findings set out here.

Where “and” joins values, the source holds several entries; their conditions need not be identical. Identical values can stand only once. Toxic doses and inconclusive results are not listed.

The subject of this experiment is BDF1 mice, P388 leukemia ip, median survival T/C. Put plainly: NCI In Vivo Anticancer Drug Screen. Data for tumor model P388 Leukemia (intraperitoneal) in B6D2F1 (BDF1) mice. The conditions noted are these: endpoint: median survival time, higher = longer survival. The essentials: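 Vehicle-dosed animals serve as the reference; survival of compound-dosed, tumour-implanted mice is divided by it.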

[1] abbreviates: dose: 100.0 mg/kg/injection, schedule: Q04DX003 (ip), vehicle: saline with Tween-80.
[2] abbreviates: dose: 50.0 mg/kg/injection, schedule: Q01DX001 (ip), vehicle: Klucel (hydroxypropylcellulose) (HPC).

With `C1CCC2[N-]CC3CCCCC3[N-]CC3CCCCC3[N-]CC3CCCCC3[N-]CC2C1.[Ni+2].[O-][Cl+3]([O-])([O-])O` (stereo not given), the T/C is 102 % of control (dose: 0.75 mg/kg/injection, schedule: Q01DX009 (ip), vehicle: saline); 110 % of control (dose: 1.5 mg/kg/injection, schedule: Q01DX009 (ip), vehicle: saline); 102 % of control (dose: 3.0 mg/kg/injection, schedule: Q01DX009 (ip), vehicle: saline); 105 % of control (dose: 6.0 mg/kg/injection, schedule: Q01DX009 (ip), vehicle: saline).
`O=C(Cc1ccc([N+](=O)[O-])cc1)c1ccc(O)cc1O`: the T/C runs as follows: (dose: 50.0 mg/kg/injection, schedule: Q04DX003 (ip), vehicle: Klucel (hydroxypropylcellulose) (HPC)) 86 % of control; (dose: 100.0 mg/kg/injection, schedule: Q04DX003 (ip), vehicle: Klucel (hydroxypropylcellulose) (HPC)) 95 % of control; (dose: 200.0 mg/kg/injection, schedule: Q04DX003 (ip), vehicle: Klucel (hydroxypropylcellulose) (HPC)) 90 % of control.
Consider `Cc1ccc(CNc2ccc(I)cc2)cc1`, for which the T/C runs as follows: under setting [1], 105 % of control; (dose: 200.0 mg/kg/injection, schedule: Q04DX003 (ip), vehicle: saline with Tween-80) 95 % of control; (dose: 400.0 mg/kg/injection, schedule: Q04DX003 (ip), vehicle: saline with Tween-80) 105 % of control.
`Nc1nc(=S)[nH]c(C(=O)O)c1Cc1ccccc1`: the T/C was 109 % of control (dose: 25.0 mg/kg/injection, schedule: Q01DX009 (ip), vehicle: Klucel (hydroxypropylcellulose) (HPC)); 86 % of control and 115 % of control (dose: 50.0 mg/kg/injection, schedule: Q01DX009 (ip), vehicle: Klucel (hydroxypropylcellulose) (HPC)); 115 % of control (dose: 100.0 mg/kg/injection, schedule: Q01DX009 (ip), vehicle: Klucel (hydroxypropylcellulose) (HPC)); 120 % of control (dose: 200.0 mg/kg/injection, schedule: Q01DX009 (ip), vehicle: Klucel (hydroxypropylcellulose) (HPC)).
With `CC1(C)N=C(N)N=C(N)N1c1cccc(OCCCOc2ccccc2)c1`, the T/C under setting [2] is 106 % of control.
Consider `O=CC12Cc3ccccc3C1CCC1(C2)OCCO1` (stereo not given), for which the T/C is, setting by setting: (dose: 100.0 mg/kg/injection, schedule: Q04DX003 (ip), vehicle: saline sonified) 90 % of control; (dose: 200.0 mg/kg/injection, schedule: Q04DX003 (ip), vehicle: saline sonified) 110 % of control; (dose: 400.0 mg/kg/injection, schedule: Q04DX003 (ip), vehicle: saline sonified) 110 % of control.
Consider `C[n+]1c(-c2ccccc2)c2ccccc2c2ccccc21`, for which the T/C by setting is: (dose: 0.75 mg/kg/injection, schedule: Q01DX009 (ip), vehicle: water) 102 % of control; (dose: 1.5 mg/kg/injection, schedule: Q01DX009 (ip), vehicle: water) 105 % of control; (dose: 1.5 mg/kg/injection, schedule: Q04DX003 (ip), vehicle: water) 111 % of control; (dose: 3.0 mg/kg/injection, schedule: Q01DX009 (ip), vehicle: water) 105 % of control; (dose: 3.0 mg/kg/injection, schedule: Q04DX003 (ip), vehicle: water) 111 % of control; (dose: 6.0 mg/kg/injection, schedule: Q04DX003 (ip), vehicle: water) 93 % of control.
For the molecule `c1ccc(CCSc2ncnc3nc[nH]c23)cc1`, the T/C runs as follows: (dose: 62.5 mg/kg/injection, schedule: Q01DX010 (ip), vehicle: saline) 95 % of control and 104 % of control; (dose: 125.0 mg/kg/injection, schedule: Q01DX010 (ip), vehicle: saline) 95 % of control and 100 % of control; (dose: 250.0 mg/kg/injection, schedule: Q01DX010 (ip), vehicle: saline) 100 % of control; (dose: 500.0 mg/kg/injection, schedule: Q01DX010 (ip), vehicle: saline) 86 % of control and 109 % of control.
Regarding `OCC1OC(n2cc(Cl)c3cncnc32)C(O)C1O` (stereo not given), the T/C (dose: 50.0 mg/kg/injection, schedule: Q04DX003 (ip), vehicle: saline) is 100 % of control and the T/C (dose: 100.0 mg/kg/injection, schedule: Q04DX003 (ip), vehicle: saline) was 90 % of control.
For `O=C1C(Cl)=C(N2CC2)C(=O)C(Cl)=C1N1CC1`, the T/C reads like this: (dose: 1.25 mg/kg/injection, schedule: Q01DX009 (ip), vehicle: saline with Tween-80) 172 % of control; (dose: 2.5 mg/kg/injection, schedule: Q01DX009 (ip), vehicle: Klucel (hydroxypropylcellulose) (HPC)) 150 % of control; (dose: 2.5 mg/kg/injection, schedule: Q01DX009 (ip), vehicle: saline with Tween-80) 169 % of control; (dose: 5.0 mg/kg/injection, schedule: Q01DX009 (ip), vehicle: Klucel (hydroxypropylcellulose) (HPC)) 157 % of control and 165 % of control; (dose: 5.0 mg/kg/injection, schedule: Q01DX009 (ip), vehicle: saline with Tween-80) 172 % of control; (dose: 5.0 mg/kg/injection, schedule: Q01DX009 (ip), vehicle: saline) 155 % of control and 165 % of control. The T/C (dose: 10.0 mg/kg/injection, schedule: Q01DX009 (ip), vehicle: Klucel (hydroxypropylcellulose) (HPC)) was 123 % of control; the T/C (dose: 10.0 mg/kg/injection, schedule: Q01DX009 (ip), vehicle: saline with Tween-80) was 169 % of control; the T/C (dose: 10.0 mg/kg/injection, schedule: Q01DX009 (ip), vehicle: saline) was 163 % of control and 200 % of control.
As to `O=C(Nc1ccc(C(=O)O)cc1)Oc1ccc(N(CCCl)CCCl)cc1`, the T/C runs as follows: (dose: 12.0 mg/kg/injection, schedule: Q04DX003 (ip), vehicle: saline) 163 % of control; (dose: 19.0 mg/kg/injection, schedule: Q04DX003 (ip), vehicle: saline) 154 % of control; (dose: 29.0 mg/kg/injection, schedule: Q04DX003 (ip), vehicle: saline with Tween-80) 200 % of control; (dose: 45.0 mg/kg/injection, schedule: Q04DX003 (ip), vehicle: saline with Tween-80) 235 % of control; (dose: 66.0 mg/kg/injection, schedule: Q04DX003 (ip), vehicle: saline with Tween-80) 163 % of control; under setting [1], 245 % of control. The T/C (dose: 150.0 mg/kg/injection, schedule: Q04DX003 (ip), vehicle: saline with Tween-80) was 190 % of control.
For `O=P1(N(CCCl)CCCl)NC(OOC2CCOP(=O)(N(CCCl)CCCl)N2)CCO1` (stereo not given), the T/C under setting [2] was 200 % of control; the T/C (dose: 100.0 mg/kg/injection, schedule: Q01DX001 (ip), vehicle: Klucel (hydroxypropylcellulose) (HPC)) is 236 % of control; the T/C (dose: 200.0 mg/kg/injection, schedule: Q01DX001 (ip), vehicle: Klucel (hydroxypropylcellulose) (HPC)) is 272 % of control; the T/C (dose: 400.0 mg/kg/injection, schedule: Q01DX001 (ip), vehicle: Klucel (hydroxypropylcellulose) (HPC)) was 273 % of control.
